Counter-ions that a name gives are not always drawn. Like-named read-outs stand apart in the source and are kept apart here.
Target: T1, F876L mutant Androgen Receptor (AR-F876L) (Homo sapiens, UniProt P10275, F877L)
T1 construct: expressed in transfected cells; host or cells: LNCaP
T1 sequence (P10275 1-920 F877L): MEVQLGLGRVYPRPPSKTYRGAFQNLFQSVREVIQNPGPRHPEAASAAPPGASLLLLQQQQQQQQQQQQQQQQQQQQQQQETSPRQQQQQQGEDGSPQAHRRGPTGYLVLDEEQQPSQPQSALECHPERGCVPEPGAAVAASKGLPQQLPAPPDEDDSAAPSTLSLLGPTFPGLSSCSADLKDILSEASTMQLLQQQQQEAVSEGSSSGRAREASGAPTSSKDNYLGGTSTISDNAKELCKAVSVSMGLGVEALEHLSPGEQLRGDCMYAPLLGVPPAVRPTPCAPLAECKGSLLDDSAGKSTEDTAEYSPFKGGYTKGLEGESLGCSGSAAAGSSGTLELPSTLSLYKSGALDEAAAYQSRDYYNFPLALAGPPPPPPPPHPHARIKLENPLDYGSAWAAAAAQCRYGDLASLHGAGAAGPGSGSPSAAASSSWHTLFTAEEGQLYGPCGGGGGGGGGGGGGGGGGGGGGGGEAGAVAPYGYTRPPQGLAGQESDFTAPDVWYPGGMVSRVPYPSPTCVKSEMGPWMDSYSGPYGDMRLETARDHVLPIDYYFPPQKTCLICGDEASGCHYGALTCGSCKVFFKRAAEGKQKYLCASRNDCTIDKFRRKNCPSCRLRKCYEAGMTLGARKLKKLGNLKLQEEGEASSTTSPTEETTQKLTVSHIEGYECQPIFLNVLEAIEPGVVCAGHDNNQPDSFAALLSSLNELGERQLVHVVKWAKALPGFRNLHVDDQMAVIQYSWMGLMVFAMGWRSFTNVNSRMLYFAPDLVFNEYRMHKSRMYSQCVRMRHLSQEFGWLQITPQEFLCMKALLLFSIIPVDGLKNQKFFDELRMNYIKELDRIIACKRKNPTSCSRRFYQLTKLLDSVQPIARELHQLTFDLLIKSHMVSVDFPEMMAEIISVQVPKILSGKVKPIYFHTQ
Assay: AR reporter assay, LNCaP-AR-F876L AG (agonist mode)
Format: cell-based
Conditions: for Emax: read-out: LNCaP-AR-F876L AG MAX % Stim
Description: LNCaP AR (cs) and LNCaP F876L luciferase cell lines were generated by transduction of each cell line (description of cell line generation Joseph J D, Lu N, Qian J, Sensintaffar J, Shao G, Brigham D, Moon M, Maneval E C, Chen I, Darimont B, Hager J H. A clinically relevant androgen receptor mutation confers resistance to second-generation antiandrogens enzalutamide and ARN-509. Cancer Discov 2013; 3:1020-1029) with an Androgen Response Element Firefly Luciferase lentiviral construct at an MOI (multiplicity of infection) of 50 following the manufacturer's instructions (Qiagen). A stable pooled-population cell line was generated using puromycin (Life Technologies) selection at 1:10,000 v/v. The protocol below was used for both cell lines and for testing of the compounds of Formula (I) of the present invention.
LNCaP cells were grown to about 80% confluence, media removed and cells rinsed in Hank's balanced salt solution prior to separation from the plate with 0.05% Trypsin EDTA. Cells were lifted and trypsin negated in complete CSS (charcoal stripped serum) culture media. CSS was maintained on cells for 24 h prior to assay, at which time 5,000 cells/[…] were seeded in Greiner 384 well White/White Tissue Culture Treated Plates and incubated for a further 1-2 hours at 37° C., 5% CO2, prior to addition of 10 μL of 4× Test Compounds (compounds described herein) or Assay Controls (all diluted in complete media containing 10% css). A further 10 μL of 4× R-1881 Agonist Challenge (antagonist assay) or Buffer (agonist assay) was then added (all diluted in complete media containing 10% css). Agonist challenge was at 400 pM for WT assay and 600 pM for F876L assay. Plates containing cells and compounds herein were incubated for a further 20-24 hours at 37° C., 5% CO2 before addition of 40 μL/well of Steady-Glo Luciferase Assay System Reagent (Promega#E2520). After 1 h, plates were read for luminescence on a BMG Pherastar.
((Sample RLU−Ave Low Control RLU[DMSO/Buffer])/(Ave High Control RLU [1 μM R-1881]—Ave Low Control RLU[DMSO/Buffer]))*100.
EC/IC50 calculations were achieved utilizing calculated RLU data and data fitting macros. Data were fit using least-squares methods to the following formula: […]
As used herein: • pIC50 is defined as −Log10(IC50 expressed in [Molar]). • pEC50 is defined as −Log10(EC50 expressed in [Molar]). • MAX % Inh is defined as the maximum % inhibition of R1881 control response observed for a compound over the tested concentration range. • MAX % Stim is defined as the maximum % stimulation (agonist response) observed for a compound over the tested concentration range. • LNCaP-AR-wt ANT refers to the reporter assay using LNCaP cells stably transfected with the Androgen Response Element Firefly Luciferase lentiviral construct and wild-type Androgen Receptor (AR-wt) in Antagonist mode. • LNCaP-AR-wt AG refers to the reporter assay using LNCaP cells stably transfected with the Androgen Response Element Firefly Luciferase lentiviral construct and wild-type Androgen Receptor (AR-wt) in Agonist mode. • LNCaP-AR-F876L ANT refers to the reporter assay using LNCaP cells stably transfected with the Androgen Response Element Firefly Luciferase lentiviral construct and F876L mutant Androgen Receptor (AR-F876L) in Antagonist mode. • LNCaP-AR-F876L AG refers to the reporter assay using LNCaP cells stably transfected with the Androgen Response Element Firefly Luciferase lentiviral construct and F876L mutant Androgen Receptor (AR-F876L) in Agonist mode.

[1] = agonist mode (buffer, no R-1881), -Log10(EC50 in Molar), read-out: LNCaP-AR-F876L AG pEC50 (converted)

SMILES | EC50 [µM] | Emax [%] | EC50 [1] [µM]
CN1CCC(Oc2ccc(N3C(=S)N(c4ccc(C#N)c(C(F)(F)F)c4)C(=O)C34CCC4)cc2)CC1 [Compound 12, 4-(5-(4-((1-Methylpiperidin-4-yl)oxy)phenyl)-8-oxo-6-thioxo-5,7-diazaspiro[3.4]octan-7-yl)-2-(trifluoromethyl)benzonitrile] | > 15.1 | 0.2 | –
N#Cc1ccc(N2C(=O)C3(CCC3)N(c3ccc(OC4CCNCC4)nc3)C2=S)cc1C(F)(F)F [Compound 13, 4-(8-Oxo-5-(6-(piperidin-4-yloxy)pyridin-3-yl)-6-thioxo-5,7-diazaspiro[3.4]octan-7-yl)-2-(trifluoromethyl)benzonitrile hydrochloride] | > 15.1 | 0 | –
CN1CCC(Oc2ccc(N3C(=S)N(c4ccc(C#N)c(C(F)(F)F)c4)C(=O)C34CCC4)cn2)CC1 [Compound 14, 4-(5-(6-((1-Methylpiperidin-4-yl)oxy)pyridin-3-yl)-8-oxo-6-thioxo-5,7-diazaspiro[3.4]octan-7-yl)-2-(trifluoromethyl)benzonitrile] | > 15.1 | 0.1 | –
N#Cc1ccc(N2C(=O)C3(CCC3)N(c3cnc(OC4CCNCC4)nc3)C2=S)cc1C(F)(F)F [Compound 15, 4-(8-Oxo-5-(2-(piperidin-4-yloxy)pyrimidin-5-yl)-6-thioxo-5,7-diazaspiro[3.4]octan-7-yl)-2-(trifluoromethyl)benzonitrile] | > 15.1 | -0.1 | –
CN1CCC(Oc2ncc(N3C(=S)N(c4ccc(C#N)c(C(F)(F)F)c4)C(=O)C34CCC4)cn2)CC1 [Compound 16, 4-(5-(2-((1-Methylpiperidin-4-yl)oxy)pyrimidin-5-yl)-8-oxo-6-thioxo-5,7-diazaspiro[3.4]octan-7-yl)-2-(trifluoromethyl)benzonitrile] | > 15.1 | 0.1 | –
Cc1cc(N2C(=O)C3(CCC3)N(c3ccc(OC4CCN(C)CC4)cc3)C2=S)ccc1C#N [Compound 17, 2-Methyl-4-(5-(4-((1-methylpiperidin-4-yl)oxy)phenyl)-8-oxo-6-thioxo-5,7-diazaspiro[3.4]octan-7-yl)benzonitrile] | – | 0.2 | > 15.1
Cc1cc(N2C(=O)C3(CCC3)N(c3ccc(OC4CCN(C)CC4)nc3)C2=S)ccc1C#N [Compound 18, 2-Methyl-4-(5-(6-((1-methylpiperidin-4-yl)oxy)pyridin-3-yl)-8-oxo-6-thioxo-5,7-diazaspiro[3.4]octan-7-yl)benzonitrile] | – | 2.6 | > 15.1
COc1cc(N2C(=O)C3(CCC3)N(c3ccc(OC4CCN(C)CC4)cc3)C2=S)ccc1C#N [Compound 19, 2-Methoxy-4-(5-(4-((1-methylpiperidin-4-yl)oxy)phenyl)-8-oxo-6-thioxo-5,7-diazaspiro[3.4]octan-7-yl)benzonitrile] | > 15.1 | 0.3 | –
COc1cc(N2C(=O)C3(CCC3)N(c3ccc(OC4CCN(C)CC4)nc3)C2=S)ccc1C#N [Compound 20, 2-Methoxy-4-(5-(6-((1-methylpiperidin-4-yl)oxy)pyridin-3-yl)-8-oxo-6-thioxo-5,7-diazaspiro[3.4]octan-7-yl)benzonitrile] | > 15.1 | 0.3 | –
N#Cc1ccc(N2C(=O)C3(CCC3)N(c3ccc(OC4CCNCC4)cc3)C2=S)cc1Cl [Compound 21, 2-Chloro-4-(8-oxo-5-(4-(piperidin-4-yloxy)phenyl)-6-thioxo-5,7-diazaspiro[3.4]octan-7-yl)benzonitrile] | > 15.1 | 0.2 | –
CN1CCC(Oc2ccc(N3C(=S)N(c4ccc(C#N)c(Cl)c4)C(=O)C34CCC4)cc2)CC1 [Compound 22, 2-Chloro-4-(5-(4-((1-methylpiperidin-4-yl)oxy)phenyl)-8-oxo-6-thioxo-5,7-diazaspiro[3.4]octan-7-yl)benzonitrile] | > 15.1 | 0 | –
N#Cc1ccc(N2C(=O)C3(CCC3)N(c3ccc(OC4CCNCC4)nc3)C2=S)cc1Cl [Compound 23, 2-Chloro-4-(8-oxo-5-(6-(piperidin-4-yloxy)pyridin-3-yl)-6-thioxo-5,7-diazaspiro[3.4]octan-7-yl)benzonitrile hydrochloride] | > 15.1 | 0.3 | –
CN1CCC(Oc2ccc(N3C(=S)N(c4ccc(C#N)c(Cl)c4)C(=O)C34CCC4)cn2)CC1 [Compound 24, 2-Chloro-4-(5-(6-((1-methylpiperidin-4-yl)oxy)pyridin-3-yl)-8-oxo-6-thioxo-5,7-diazaspiro[3.4]octan-7-yl)benzonitrile hydrochloride] | > 15.1 | 0.1 | –

Source: patent US20190337924A1, “SUBSTITUTED HYDANTOIN AND THIOHYDANTOIN DERIVATIVES AS ANDROGEN RECEPTOR ANTAGONISTS” (Janssen Pharmaceutica NV, priority 2016, published 2019)
